# Earlier results, collected in publication PMC8739290, “A phase 1b study of erlotinib and momelotinib for the treatment of EGFR-mutated, tyrosine kinase inhibitor-naive metastatic non-small cell lung cancer” (Cancer Chemotherapy and Pharmacology, 2021).
# Test system: PC-9 and HCC827 models
# Parameters: method as in PMID 32297743, doi:10.1158/7445.AM2017-4046
# Settings: AZD4205 with osimertinib, increased tumor regression, delayed regrowth, knockdown of pSTAT3; cited from earlier work
compound,measurement,value
"COc1nn(C)cc1Nc1nccc(-c2c[nH]c3c(NC(=O)[C@@H](C)N4CCN(C)CC4)cccc23)n1 [AZD4205, (2R)-N-[3-[2-[(3-Methoxy-1-methyl-pyrazol-4-yl)amino]pyrimidin-4-yl]-1H-indol-7-yl]-2-(4-methylpiperazin-1-yl)propenamide]",combination activity compared to each agent alone,synergistic activity
